Source: ChEMBL document CHEMBL4402516, “5-Lipoxygenase as a drug target: A review on trends in inhibitors structural design, SAR and mechanism based approach” (Bioorg Med Chem, 2019)
Blank lines part the entries; values can stand above or below the compound they belong to.

How the values were obtained:
[1] = target: Prostaglandin E synthase/G/H synthase 2 (Homo sapiens) (UniProt P35354+O14684); test: Inhibition of COX2/mPGES1 in TNFalpha-induced human HeLa cells assessed as reduction in PGE2 production at 50 uM incubated for 3 hrs by EIA relative to control; format: cell-based
Sequence of Prostaglandin E synthase/G/H synthase 2 (Homo sapiens) (O14684 whole entry, looked up): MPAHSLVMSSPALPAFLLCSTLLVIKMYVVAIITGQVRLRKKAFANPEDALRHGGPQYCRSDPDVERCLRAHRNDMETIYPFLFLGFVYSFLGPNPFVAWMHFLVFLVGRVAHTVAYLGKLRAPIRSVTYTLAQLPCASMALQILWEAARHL
Sequence of Prostaglandin E synthase/G/H synthase 2 (Homo sapiens) (P35354 whole entry, looked up): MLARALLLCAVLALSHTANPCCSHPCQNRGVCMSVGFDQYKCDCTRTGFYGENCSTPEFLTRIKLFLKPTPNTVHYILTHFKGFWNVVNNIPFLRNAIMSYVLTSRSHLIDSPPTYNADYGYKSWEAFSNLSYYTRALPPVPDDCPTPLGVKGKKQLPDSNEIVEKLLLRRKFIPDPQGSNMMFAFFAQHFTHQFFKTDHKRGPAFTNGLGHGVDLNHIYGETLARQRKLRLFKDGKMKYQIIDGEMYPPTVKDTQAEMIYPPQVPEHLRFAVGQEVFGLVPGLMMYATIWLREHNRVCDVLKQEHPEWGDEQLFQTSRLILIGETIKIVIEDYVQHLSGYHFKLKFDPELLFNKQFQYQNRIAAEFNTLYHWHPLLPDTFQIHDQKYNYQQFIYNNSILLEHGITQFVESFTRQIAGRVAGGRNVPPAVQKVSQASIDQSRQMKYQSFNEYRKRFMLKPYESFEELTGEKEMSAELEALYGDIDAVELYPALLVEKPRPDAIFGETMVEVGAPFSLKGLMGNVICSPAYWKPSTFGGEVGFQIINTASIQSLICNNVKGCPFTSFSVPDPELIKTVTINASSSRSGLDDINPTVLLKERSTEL

[2] = target: T1, Polyunsaturated fatty acid 5-lipoxygenase (Homo sapiens) (UniProt P09917); test: Inhibition of recombinant human 5-LOX expressed in Escherichia coli BL21 cells at 50 uM using arachidonic acid as substrate by UV-vis spectrophotometry relative to control
T1 sequence (whole entry): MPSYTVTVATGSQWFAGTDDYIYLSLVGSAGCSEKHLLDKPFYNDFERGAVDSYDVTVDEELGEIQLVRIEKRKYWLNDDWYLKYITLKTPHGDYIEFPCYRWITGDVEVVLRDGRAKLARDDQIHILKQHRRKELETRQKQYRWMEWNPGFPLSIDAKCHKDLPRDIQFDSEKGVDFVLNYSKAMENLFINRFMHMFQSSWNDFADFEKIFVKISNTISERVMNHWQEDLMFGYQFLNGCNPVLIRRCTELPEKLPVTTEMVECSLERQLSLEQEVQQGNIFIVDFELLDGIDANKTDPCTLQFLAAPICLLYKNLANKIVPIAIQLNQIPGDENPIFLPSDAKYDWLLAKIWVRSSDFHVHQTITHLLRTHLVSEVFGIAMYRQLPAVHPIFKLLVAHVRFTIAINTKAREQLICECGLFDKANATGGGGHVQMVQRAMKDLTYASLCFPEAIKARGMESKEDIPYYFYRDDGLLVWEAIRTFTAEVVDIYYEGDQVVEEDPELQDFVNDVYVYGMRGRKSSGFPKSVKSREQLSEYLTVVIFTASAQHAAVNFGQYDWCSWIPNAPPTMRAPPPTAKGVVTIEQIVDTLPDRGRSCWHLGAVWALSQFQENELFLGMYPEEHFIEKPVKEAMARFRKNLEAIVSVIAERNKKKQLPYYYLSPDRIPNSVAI

[3] = target: T2, Polyunsaturated fatty acid 5-lipoxygenase (Homo sapiens, UniProt P09917); test: Inhibition of 5-LOX in A23187-stimulated human neutrophils preincubated for 15 mins followed by A23187 stimulation and measured after 10 mins
T2 sequence (P09917 whole entry): T1 sequence (whole entry)

[4] = Inhibition of soybean 15-LOX by spectrophotometric method; set-up: species or system Glycine max
[5] = target: T2, Polyunsaturated fatty acid 5-lipoxygenase; test: Inhibition of 5-LOX (unknown origin) after 5 mins by colorimetric method
[6] = target: T2, Polyunsaturated fatty acid 5-lipoxygenase; test: Inhibition of human leukocyte 5-LOX using arachidonic acid as substrate by UV/Vis spectrophotometry
[7] = target: T3, Polyunsaturated fatty acid 5-lipoxygenase (Rattus norvegicus) (UniProt P12527); test: Inhibition of 5-LOX in rat RBL-1 cells assessed as reduction in LTB4 secretion at 1 uM preincubated for 10 mins followed by A23187 stimulation and measured after 15 mins by EIA; format: cell-based
T3 sequence (whole entry): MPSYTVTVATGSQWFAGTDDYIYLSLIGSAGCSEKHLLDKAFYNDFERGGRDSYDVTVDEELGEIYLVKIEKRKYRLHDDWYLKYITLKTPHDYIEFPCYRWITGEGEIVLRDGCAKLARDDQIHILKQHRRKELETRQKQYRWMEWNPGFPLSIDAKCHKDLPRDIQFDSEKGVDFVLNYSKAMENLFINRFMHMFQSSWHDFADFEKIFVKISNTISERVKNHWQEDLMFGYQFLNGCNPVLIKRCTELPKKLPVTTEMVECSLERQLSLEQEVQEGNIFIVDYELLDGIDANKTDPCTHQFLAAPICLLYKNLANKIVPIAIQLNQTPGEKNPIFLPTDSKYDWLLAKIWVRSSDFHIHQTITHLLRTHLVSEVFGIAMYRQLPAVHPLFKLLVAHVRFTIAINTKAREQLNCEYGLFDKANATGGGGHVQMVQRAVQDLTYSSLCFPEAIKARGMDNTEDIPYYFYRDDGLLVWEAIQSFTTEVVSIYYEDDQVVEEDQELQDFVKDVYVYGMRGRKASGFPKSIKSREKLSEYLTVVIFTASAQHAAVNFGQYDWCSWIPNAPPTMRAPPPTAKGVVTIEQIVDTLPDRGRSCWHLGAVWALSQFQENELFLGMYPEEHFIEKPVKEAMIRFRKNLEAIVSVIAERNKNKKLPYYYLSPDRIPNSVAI

[8] = target: T3, Polyunsaturated fatty acid 5-lipoxygenase (Rattus norvegicus); test: Inhibition of rat 5-LOX expressed in insect sf21 cells at 1 uM preincubated for 4 mins followed by Arachidonic acid addition and measured after 4 mins by FOX assay relative to control
[9] = Inhibition of potato 5-LOX using linoleic acid as substrate measured at 2 min by UV absorbance method; set-up: species or system Solanum tuberosum
[10] = target: T2, Polyunsaturated fatty acid 5-lipoxygenase; test: Inhibition of human PMNL 5-LOX using arachidonic acid as substrate after 5 mins by HPLC method
[11] = target: T2, Polyunsaturated fatty acid 5-lipoxygenase; test: Inhibition of recombinant human 5-LOX expressed in Escherichia coli BL21 (DE3) cells preincubated for 10 mins followed by arachidonic acid addition and measured after 10 mins by RP-HPLC method
Glycine max = test: Inhibition of soybean 5-LOX at 100 uM incubated for 10 mins relative to control
MCF7 = test: Antiproliferative activity against human MCF7 cells by MTT assay; format: functional, cell-based
[12] = target: T4, Polyunsaturated fatty acid 5-lipoxygenase (Rattus norvegicus, UniProt P12527); test: Inhibition of rat 5-LOX expressed in insect sf21 cells preincubated for 4 mins followed by Arachidonic acid addition and measured after 4 mins by FOX assay
T4 sequence (P12527 whole entry): T3 sequence (whole entry)

[13] = target: T2, Polyunsaturated fatty acid 5-lipoxygenase; test: Inhibition of recombinant human 5-LOX expressed in baculovirus-infected insect cells preincubated for 10 mins followed by Arachidonic acid and ATP addition and measured after 20 mins by H2DCFD dye based fluorescence method
[14] = target: T1, Polyunsaturated fatty acid 5-lipoxygenase (Homo sapiens); test: Inhibition of 5-LOX in human whole blood preincubated for 10 mins followed by Arachidonic acid and ATP addition and measured after 20 mins by H2DCFD dye based fluorescence method; format: tissue-based
[15] = target: T2, Polyunsaturated fatty acid 5-lipoxygenase; test: Competitive inhibition of recombinant human 5-LOX expressed in Escherichia coli BL21 cells using Arachidonic acid as substrate by UV absorbance

IC50 [3]: 0.9 µM
Structure (SMILES): Cc1cccc(OC(=O)c2cc([N+](=O)[O-])cc([N+](=O)[O-])c2)c1

IC50 [5]: 48.3 µM
Structure (SMILES): Cc1cc(Nc2ncc(-c3ccc(F)cc3)o2)cc(C)c1O

IC50 [6]: 0.17 µM
Structure (SMILES): Cc1ccc(S(=O)(=O)n2c(C(=O)C(=O)N3CCCC3)cc3ccccc32)cc1

inhibition [7]: 98% | inhibition [8]: 96%
Structure (SMILES): COc1ccc(/C=C2\SC(c3ccc4ccccc4c3)=NC2=O)cc1

IC50 [9]: 33.7 µM
Structure (SMILES): O=C(c1[nH]nc2c1CSc1sc(Br)cc1-2)N1CCN(c2ccccc2F)CC1

IC50 [11]: 0.1 µM
Structure (SMILES): O=C(NCCCCCCCCCNC(=O)c1cccc(O)c1O)c1cccc(O)c1O

inhibition (Glycine max): 68% | IC50 (MCF7): 0.9 µM
Structure (SMILES): NCCCC(=O)c1cc(=O)c2cc(F)ccc2o1

IC50 [13]: 0.229 µM | IC80 [14]: 0.37 µM
Structure (SMILES): Cn1nccc1-c1ccc(Sc2ccc(C3(C(N)=O)CCOCC3)cc2)cc1

IC50 [15]: 10 µM
Structure (SMILES): Clc1ccc(-c2cc(-c3c[nH]c4ccccc34)cc(-c3ccc(Cl)cc3)n2)cc1

Further lines, the compound ahead of its results:

Structure (SMILES): CS(=O)(=O)NC(Cc1cc(I)c(OCc2ccon2)c(I)c1)C(=O)O (stereo unspecified)
inhibition [1]: 66% | inhibition [2]: 74%

Structure (SMILES): CCCCCC(=O)c1c(O)cc(O)c(C/C=C(\C)CCC=C(C)C)c1O
IC50 [4]: 10.3 µM

Structure (SMILES): COc1cc(CNC(=O)CCCC/C=C/C(C)C)ccc1O [CAPSAICIN]
IC50 [10]: 56 µM

Structure (SMILES): C=CCc1ccc(O)c(OC)c1 [EUGENOL]
IC50 [10]: 26 µM

Structure (SMILES): O=C(/C=C/C=C/c1ccc2c(c1)OCO2)N1CCCCC1 [PIPERINE]
IC50 [10]: 54 µM

Structure (SMILES): CC(C)=CCn1cc(/C=N/NC(N)=O)c2cc(Br)ccc21
IC50 [12]: 0.12 µM

Structure (SMILES): O=C/C=C/c1ccccc1
IC50 [10]: 35 µM

Structure (SMILES): C=CCSCC=C [DIALLYL SULFIDE]
IC50 [10]: 83 µM
